This is an account of results in US9289503B2, “Fatty acid fumarate derivatives and their uses” (Catabasis Pharmaceuticals, Inc., priority 2010, dated 2016).

Format in all cases: cell-based
The test system of one test is Hmox1. As to the kind of experiment: Hmox1 target gene expression in RAW264.7 macrophages. The following applies: RAW264.7, 2 hours pre-incubation, 100 ng/ml LPS 3 hours; FIG. 3. Here is the method: RAW264.7 macrophages are seeded at a density of 100,000 cells/well in a 96-well plate in DMEM supplemented with 10% FBS and Penn/strep. 16 hours later, medium is aspirated and replaced with 90 μl/well of serum-free DMEM. A fatty acid fumarate conjugate, DHA and EPA are brought up in 100% EtOH to a concentration of 100 mM and then diluted 1:100 In 100% FBS for a 20× stock solution consisting of 1 mM compound and 1% EtOH. The fatty acid fumarate conjugate 20× stock solutions are diluted 1:2 in FBS supplemented with 1% EtOH for a 500 uM 10× stock solution, whereas equal volumes of the DHA and EPA 20× stock solutions are mixed to create a 10× stock solution containing 500 μm each of DHA and EPA. […] The compounds are allowed to pre-incubate for 2 hours before stimulation of 100 ng/ml LPS (10 μl of 1 μg/ml LPS is added to each well). Following 3 hours of LPS stimulation, cells are washed once in 1× PBS, aspirated dry, and flash frozen in liquid nitrogen. RNA is then isolated and converted to cDNA using the Cells to cDNA kit (Ambion) according to the manufacturer's protocol. Transcript levels are then measured using ABI Taqman primer/probe assay kits, normalized to GAPDH using the deltaCt method, and the data expressed relative to vehicle only control.

A further test deals with TNF-α. As to the kind of experiment: TNF-α gene expression in LPS-stimulated RAW264.7 macrophages. As to conditions: 10 μM; 2 hours pre-incubation, 100 ng/ml LPS 3 hours; compared with 10 μM each DHA and MMF; FIG. 1. Here is the method:
(§1) RAW264.7 macrophages were seeded at a density of 100,000 cells/well in a 96-well plate in DMEM supplemented with 10% FBS and Penn/strep. 16 hours later, medium was aspirated and replaced with 90 μl/well of serum-free DMEM. A fatty acid fumarate conjugate, DHA and monomethyl-fumarate (MMF) were brought up in 100% EtOH to a concentration of 100 mM and then diluted 1:100 in 100% FBS for a stock solution consisting of 1 mM compound and 1% EtOH. these stock solutions were then diluted 1:10 in FBS supplemented with 1% EtOH to generate a 100 μM of a fatty acid fumarate conjugate and 100 μM each of DHA and MMF. 10 μl was then added to the RAW246.7 cells to generate final concentrations 10 μM of the fatty acid fumarate conjugate or 10 μM each DHA and MMF, along with vehicle only control. The compounds were allowed to pre-incubate for 2 hours before stimulation of 100 ng/ml LPS (10 μl of 1 μg/ml LPS was added to each well). Following 3 hours of LPS stimulation, cells were washed once in 1× PBS, aspirated dry, and flash frozen in liquid nitrogen. RNA was then isolated and converted to cDNA using the Cells to cDNA kit (Ambion) according to the manufacturer's protocol. IL-1β and TNF-α transcript levels were then measured using Taqman primer/probe assay sets (Applied Biosystems), normalized to GAPDH using the deltaCt method, and the data expressed relative to vehicle only control. […]

The subject of another test is IL-1β. As to the kind of experiment: IL-1β gene expression in LPS-stimulated RAW264.7 macrophages. The following applies: 10 μM; 2 hours pre-incubation, 100 ng/ml LPS 3 hours; compared with 10 μM each DHA and MMF; FIG. 1. Here is the method:
as §1, with “The compounds were allowed to pre-incubate for 2 hours before stimulation of 100 ng/ml LPS (10 μl of 1 μg/ml LPS was added to each well). Following 3 hours of LPS stimulation, cells were washed once in 1× PBS, aspirated dry, and flash frozen in liquid nitrogen. RNA was then isolated and converted to cDNA using the Cells to cDNA kit (Ambion) according to the manufacturer's protocol.” left out
RAW264.7 macrophages are seeded at a density of 100,000 cells/well in a 96-well plate in DMEM supplemented with 10% FBS and Penn/strep. […] Transcript levels are then measured using ABI Taqman primer/probe assay kits, normalized to GAPDH using the deltaCt method, and the data expressed relative to vehicle only control.

As to `CC/C=C\C/C=C\C/C=C\C/C=C\C/C=C\C/C=C\CCC(=O)NCCNC(=O)/C=C/C(=O)OC` [Compound I-1, (E)-methyl 4-(2-(4Z,7Z,10Z,13Z,16Z,19Z)-docosa-4,7,10,13,16,19-hexaenamidoethylamino)-4-oxobut-2-enoate], in the test with Hmox1, the “effect on the target gene Hmox1” value is “positive effect”. The TNF-α gene expression entry with TNF-α is on record as “greater reduction”. For the same compound, in the test on IL-1β, the IL-1β gene expression entry was “greater reduction”.
